The values below come from ChEMBL document CHEMBL1156013, “Pharmacophore-guided lead optimization: the rational design of a non-zinc coordinating, sub-micromolar inhibitor of the botulinum neurotoxin serotype a metalloprotease” (Bioorg Med Chem Lett, 2009).

For orientation: inhibition means the change of the read-out against control, counted positive when it falls. One may read the Ki as the dissociation constant of the complex between target and ligand, obtained from inhibition or displacement. Low readings indicate a stronger hold on the target, high ones a looser hold on the target. What is called IC50 is the concentration that inhibits the measured activity by half.

The target of test [1] is Botulinum neurotoxin type A (Clostridium botulinum) (UniProt P0DPI0). In words: Inhibition of Clostridium botulinum neurotoxin A light chain at 20 uM by HPLC-based assay.
Chain of Botulinum neurotoxin type A (Clostridium botulinum) (P0DPI0 2-448 limits assumed): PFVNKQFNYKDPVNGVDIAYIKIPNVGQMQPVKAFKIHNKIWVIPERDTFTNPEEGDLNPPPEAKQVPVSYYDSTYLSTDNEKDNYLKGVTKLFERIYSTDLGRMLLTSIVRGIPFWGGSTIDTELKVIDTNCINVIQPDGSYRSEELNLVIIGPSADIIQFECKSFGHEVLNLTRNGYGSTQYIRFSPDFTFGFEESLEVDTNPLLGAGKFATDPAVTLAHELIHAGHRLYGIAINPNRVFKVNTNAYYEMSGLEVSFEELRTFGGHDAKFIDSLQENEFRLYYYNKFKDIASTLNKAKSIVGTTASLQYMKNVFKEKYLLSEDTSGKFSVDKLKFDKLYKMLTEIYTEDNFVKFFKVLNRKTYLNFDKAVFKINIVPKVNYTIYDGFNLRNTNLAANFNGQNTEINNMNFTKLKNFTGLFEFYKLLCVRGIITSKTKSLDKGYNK
Test [2] has as its target Botulinum neurotoxin type A (Clostridium botulinum, UniProt P0DPI0). In words: Inhibition of Clostridium botulinum neurotoxin A light chain by HPLC-based assay.

Chain of Botulinum neurotoxin type A (P0DPI0 2-448 limits assumed): as above

In the case of `N=C(N)c1ccc2cc(-c3ccc(Oc4ccc(/C(N)=N/CCCNc5ccnc6cc(Cl)ccc56)cc4)cc3)[nH]c2c1`, the inhibition in test [1] was 95%. In addition, in test [2], the Ki is 0.6 µM.

As to `N=C(N)c1ccc(Oc2ccc(-c3cc4ccc(C(=N)N)cc4[nH]3)cc2)cc1`, in test [2], the IC50 is 3 µM and the Ki was 10 µM.

Consider `Clc1ccc2c(NCCCNCCCNc3ccnc4cc(Cl)ccc34)ccnc2c1`, for which the inhibition in test [1] was determined as 60%.

The compound `N=C(N)c1ccc(Oc2ccc(-c3cc4ccc(/C(N)=N/CCCNc5ccnc6cc(Cl)ccc56)cc4[nH]3)cc2)cc1` displayed an inhibition in test [1] of 95%. The compound also displayed a Ki in test [2] of 0.6 µM.
